Laboratory results from patent US8921424B2, “Histone deacetylase inhibitors, process for preparation and uses thereof” (Zhejiang Hisun Pharmaceutical Co. Ltd., priority 2007, dated 2014).

How the values were obtained:
[1] = tested on: Colo205; assay: Cell-based proliferation assay (SRB), Colo205; conditions: Homo sapiens
Protocol: (§1) Cell-Based Proliferation Assay for Determination of GI50 Values
(§2) A rapid multiwell plate assay using Sulforhodamine B (SRB) protein stain was adopted to evaluate the growth inhibitory effects of the compounds of the present invention. The screening panel of cancer cell lines includes Colo205 and HCT116 colon cancer cells, MDA-MB231 and MDA-MB435 chest cancer cells, A549 lung cancer cells, and Chinese hamster ovary cell line CHO, which were obtained from ATCC.
(§3) The cell line Colo205 is grown in RPMI 1640 medium containing 2 mM L-glutamine, 5% fetal bovine serum, and 1.0 mM sodium pyruvic acid. Cell lines A549 and MDA-MB231 are grown in RPMI 1640 medium containing 2 mM L-glutamine and 5% fetal bovine serum. The cell line MDA-MB435 is grown in DMEM medium containing 2 mM L-glutamine and 5% fetal bovine serum. The cell lines HCT 116 is grown in IMEM medium containing 2 mM L-glutamine and 5% fetal bovine serum. The CHO cell line, used as a normal control on toxicity, is grown in a special medium for cell line. For a typical screening experiment, A549 and Colo205 cells are inoculated into 96-well microtiter plates, with 100 μL per well, and 2000 and 5000 cells per well respectively for either cell line. MDA-MB435, HCT116, MDA-MB231 and CHO cells are also inoculated into 96-well microtiter plates, with 6000 cells per well. After cell inoculation, the microtiter plates are incubated at 37° C., 5% CO2, and 100% relative humidity for 24 hr in order to make cells adhere to well wall.
(§4) After 24 h incubation or time zero for drug addition, with each cell line 50 μl of cold 50% (w/v) TCA is added to wells used for control to fix cells in situ. Also at time zero, cells in other wells are treated with 100 μl of compound of different concentrations for 24 hr, 48 hr, and 72 hr respectively, with varying final compound concentration (0.1 μM, 1 μM, 5 μM 10 μM). For each treatment duration at each compound concentration, there are triplicate wells, as well as an array of control wells including a blank control well (cell culture medium only, no cells), a no-compound control well (adding same volume of cell culture medium but no compound), a positive control well (treated with Suberoylanilide hydroxamic acid (SAHA)), and normal cell well control (CHO cells). Following the addition of compounds, cell plates are incubated for 24 h, 48 h or 72 h per treatment group at 37° C., 5% CO2, and 100% relative humidity. The Treatment is then terminated by addition of cold TCA and incubation of 1 hr at 4° C. The supernatant is discarded, and all wells are washed five times with de-ioned water and air dried. Then each well is added with 100 μl sulforhodamine B (SRB) solution (0.4% (w/v) made in 1% acetic acid) and cell plates are incubated for 20-30 minutes at room temperature. After staining, unbound dye is removed by washing five times with 1% acetic acid and the plates are air dried. Bound stain is subsequently solubilized with 10 mM (200 μL) Tris base with the help of 5 min platform vibration or pipetting up and down, and the absorbance is read on an automated plate reader (M5 detection system, MD Group Ltd.) at a wavelength of 565 nm (calibrated zero reading of blank control at wavelength of 690 nm). The analytical software, XL-fit has been used to generate GI50 from a series of data thus obtained.

[2] = tested on: HCT-116; assay: Xenograft model, HCT-116; type: in vivo, mouse; conditions: i.p.
[3] = tested on: MDA-MB-435; assay: Xenograft model, MDA-MB-435; type: in vivo, mouse; conditions: i.p., 15 days
Excerpt: In Vivo Anti-Neoplastic (or Anti-Tumour) Effect of HDAC Inhibiting Agents
The efficacy of the selected compounds of the invention can then be determined using in vivo animal (mouse) xenograft studies. The animal xenograft model is one of the most commonly used in vivo cancer models for studying the pharmaceutically effective dosage, administration route, frequency and interval.
Athymic nude mice (Female, 5-6 week old, BALB/c, nu/nu, approximately 18-20 g body weight) are obtained from Vital River. The animals are kept on a 12 h light/dark cycle (0700-1900); food and water are provided ad libitum. All in vivo experiments are carried out in a specific pathogen-free facility (22° C.). The human cancer […] transplant model in athymic nude mice is constructed using xenograft cell lines colon cancer cell line colo205, breast cancer cell line MDA-MB435, and lung cancer cell line A549, all obtained from ATCC. Cultured cells are removed from culture plate wall by digestion, collected and suspended in cell culture medium containing no FBS, at a concentration of 5×10^6/0.2 ml, and brought to animal facility on ice. is 0.2 ml cell suspension is given to mice via rear left auxilliary subcutaneous scapular injection, using Size 6 needle. Animals are measured every 2-3 days on the size of tumor formation. After two weeks, those tumors that have been well grown without leak are removed from animals under sterile condition, split into several small fractions (2-3 mm in diameter), and injected s.c. into the rear left auxilliary subcutaneous scapular of animals. […] While the animas being treated, body weight of the animal and size of the tumor are measured every 3 days, with mortality also recorded. […] Tumors are removed, weighed, and measured. […] Tumor-inhibition rate, mortality, as well as relative tumor proliferationrate T/C (%) are calculated. […]
Significant differences in tumor growth rate were determined by analysis of variance (Table 5).

[4] = tested on: SKOV-3; assay: Cell-based proliferation assay (SRB), SKOV-3; conditions: Homo sapiens
Protocol: as §1, §2, §3, §4

[5] = tested on: HL-60; assay: Cell-based proliferation assay (SRB), HL-60; conditions: Homo sapiens
[6] = tested on: HCT116; assay: Cell-based proliferation assay (SRB), HCT116; conditions: Homo sapiens
Protocol: as §1, §2, §3, §4

[7] = tested on: MDAMB435; assay: Cell-based proliferation assay (SRB), MDAMB435; conditions: Homo sapiens
Protocol: as §1, §2, §3, §4

[8] = tested on: HL-60; assay: Xenograft model, HL-60; type: in vivo, mouse; conditions: i.p.
[9] = tested on: SKOV-3; assay: Xenograft model, SKOV-3; type: in vivo, mouse; conditions: i.p.

Row | Structure (SMILES) | GI50 ([1]; COLO 205, Table 3) [µM] | GI50 ([1]; COLO 205, Table 4) [µM] | GI50 ([4]; SK-OV-3, Table 3) [µM] | GI50 ([4]; SK-OV-3, Table 4) [µM] | GI50 ([5]; HL-60, Table 3) [µM] | GI50 ([5]; HL-60, Table 4) [µM] | GI50 ([6]; HCT-116, Table 3) [µM] | GI50 ([7]; MDA-MB-435, Table 3) [µM] | GI50 ([7]; MDA-MB-435, Table 4) [µM] | other results
1 | CCCCCNc1cc(/C=C/C(=O)NO)ccc1SCCN(CC)CC [Example 2, 3-(4-(2-(diethylamino)ethylthio)-3-(pentylamino)phenyl)-N-hydroxy-acrylamide] | 4.23 | 4.23 | 5.46 | 5.46 | 3.51 | 3.51 | 3.99 | 3.1 | 3.1 | T/C(%) HCT-116 ([2]; 300 mg/kg, 14 days): 31% (300,14); T/C(%) MDA-MB-435 ([3]; 200 mg/kg): >60% (200,15); GI50 ([6]; HCT-116, Table 4): 3.99 µM; T/C(%) HL-60 ([8]; 200 mg/kg, 15 days): 40% (200,15); T/C(%) SKOV-3 ([9]; 200 mg/kg, 21 days): 45% (200,21)
2 | O=C(CCCCCCC(=O)Nc1ccccc1)NO [SAHA, suberoylanilide hydroxamic acid, reference compound] | 3.15 | – | 3.56 | – | 2 | – | 1.52 | 4.1 | – | T/C(%) HCT-116 ([2]; 80 mg/kg, 15 days): >60% (80,15); T/C(%) MDA-MB-435 ([3]; 80 mg/kg): >60% (80,15); T/C(%) HL-60 ([8]; 80 mg/kg, 10 days): 45% (80,10); T/C(%) SKOV-3 ([9]; 80 mg/kg, 20 days): >60% (80,20)
3 | CCCCc1nc2cc(/C=C/C(=O)NO)ccc2n1CCN(CC)CC [SB939, reference compound] | 2.41 | 2.41 | 5.25 | 5.25 | 0.645 | 0.645 | 1.35 | 2.65 | 2.65 | T/C(%) HCT-116 ([2]; 30 mg/kg, 14 days): 30% (30,14); T/C(%) MDA-MB-435 ([3]; 30 mg/kg): 58% (30,15); T/C(%) HL-60 ([8]; 30 mg/kg, 10 days): 51% (30,10); T/C(%) SKOV-3 ([9]; 30 mg/kg, 20 days): >60% (30,20)
